Key:
[1] = test system: IL-17A-induced G-CSF production in human normal keratinocyte (NHK); assay: NHK Assay: IL-17A-induced G-CSF production in human normal keratinocytes; type: cell-based; conditions: 24 h, adult normal human keratinocytes, IL-17A 5 ng/mL, simple average if tested more than once
In short: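 Adult normal human keratinocytes were seeded at 3000-4000 cells/well. Recombinant human IL-17A was pre-incubated 1 h at rt with titrated compound, then added to cells (final 5 ng/mL IL-17A, 0.2% DMSO, 5% FBS) for 24 h at 37° C. Supernatant G-CSF was measured by HTRF against a standard curve to give IC50.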

[2] = target: IL-17A(FLAG-Tagged): IL-17RA(His-Tagged) (Homo sapiens, UniProt Q16552, K93Q); assay: IL-17A(FLAG-Tagged): IL-17RA(His-Tagged) Binding Disruption Eu-HTRF Assay; conditions: IL-17A/IL-17RA binding disruption, simple average if tested more than once
In short: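 IC50 comes from a one-site competition fit of the HTRF 665/620 nm ratio. Compound dilutions (2-fold, 22 points) were held 1 h rt with FLAG-tagged IL-17A dimer, then His-tagged IL-17RA plus Eu-cryptate anti-FLAG and D2 anti-His antibodies were added for 2 h rt.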

Chain of UniProt Q16552 (Q16552 with tags, fused parts or gaps K93Q): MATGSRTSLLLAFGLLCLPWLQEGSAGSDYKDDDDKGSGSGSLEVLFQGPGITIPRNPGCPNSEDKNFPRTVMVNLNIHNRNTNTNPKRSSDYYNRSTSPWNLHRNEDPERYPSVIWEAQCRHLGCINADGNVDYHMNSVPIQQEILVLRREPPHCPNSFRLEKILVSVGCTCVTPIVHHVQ

IC50 [2] [nM]	SMILES	IC50 ([1]; Homo sapiens, Keratinocyte) [nM]	IC50 [1] [nM]
2100	O=C(CCC(F)(F)F)N[C@@H](c1cnn2cc([C@@H](NC(=O)[C@H]3C[C@H]3CF)C3CCC(F)(F)CC3)nc2c1)C1CC1 (relative stereo) [Example 364, (1S*,2R*)—N—((S)-(7-((R*)-Cyclopropyl(4,4,4-trifluorobutanamido)methyl)imidazo[1,2-b]pyridazin-2-yl)(4,4-difluorocyclohexyl)methyl)-2-(fluoromethyl)cyclopropane-1-carboxamide]	> 20000	
1300	C[C@@H](CC(=O)N[C@@H](c1cnn2cc([C@@H](NC(=O)[C@@H]3C[C@H]3C(F)(F)F)C3CCC(F)(F)CC3)nc2c1)C1CC1)C(F)(F)F (relative stereo) [Example 242, (trans-1R*,2R*)—N—((S)-(7-((R)-Cyclopropyl((S*)-4,4,4-trifluoro-3-methylbutanamido)methyl)imidazo[1,2-b]pyridazin-2-yl)(4,4-difluorocyclohexyl)methyl)-2-(trifluoromethyl)cyclopropane-1-carboxamide]	790	
120	CC(CC(=O)N[C@@H](c1cnn2cc([C@@H](NC(=O)c3ccnn3C(C)C)C3CCC(F)(F)CC3)nc2c1)C1CC1)C(F)F (stereo partly drawn) [Example 262, N-((1S)-(7-((1R)-Cyclopropyl(4,4-difluoro-3-methylbutanamido)methyl)imidazo[1,2-b]pyridazin-2-yl)(4,4-difluorocyclohexyl)methyl)-1-isopropyl-1H-pyrazole-5-carboxamide]	120	
410	O=C(CCC(F)(F)F)N[C@@H](c1cnn2cc([C@@H](NC(=O)c3cc(C(F)(F)F)ccn3)C3CCC(F)(F)CC3)nc2c1)C1CC1 [Example 198, N—((S)-(7-((R)-Cyclopropyl(4,4,4-trifluorobutanamido)methyl)imidazo[1,2-b]pyridazin-2-yl)(4,4-difluorocyclohexyl)methyl)-4-(trifluoromethyl)picolinamide]	1800	
4400	Cc1nonc1C(=O)N[C@H](c1cn2ncc([C@H](NC(=O)[C@H]3CC[C@@H]3F)C3CC3)cc2n1)C1CCC(F)(F)CC1 (relative stereo) [Example 334, N—((S)-(7-((R)-Cyclopropyl((1R*,2S*)-2-fluorocyclobutane-1-carboxamido)methyl)imidazo[1,2-b]pyridazin-2-yl)(4,4-difluorocyclohexyl)methyl)-4-methyl-1,2,5-oxadiazole-3-carboxamide]	> 20000	
61	Cc1nonc1C(=O)N[C@H](c1cn2ncc([C@H](NC(=O)CC3CC(F)(F)C3(F)F)C3CC3)cc2n1)C1CCC(F)(F)CC1 (single isomer, unassigned) [Example 324, N—((S)-(7-((R)-Cyclopropyl(2-((R*)-2,2,3,3-tetrafluorocyclobutyl)acetamido)methyl)imidazo[1,2-b]pyridazin-2-yl)(4,4-difluorocyclohexyl)methyl)-4-methyl-1,2,5-oxadiazole-3-carboxamide]	300	
140	O=C(CCC(F)(F)F)N[C@@H](c1cnn2cc([C@@H](NC(=O)c3ccnc(C(F)(F)F)c3)C3CCC(F)(F)CC3)nc2c1)C1CC1 [Example 194, N—((S)-(7-((R)-Cyclopropyl(4,4,4-trifluorobutanamido)methyl)imidazo[1,2-b]pyridazin-2-yl)(4,4-difluorocyclohexyl)methyl)-2-(trifluoromethyl)isonicotinamide]	1600	
17	CC(C)(OC[C@H](NC(=O)c1nonc1C1CC1)c1cn2ncc([C@H](NC(=O)CC3CC(F)(F)C3)C3CC3)cc2n1)C(F)(F)F [Example 321, 4-Cyclopropyl-N—((R)-1-(7-((R)-cyclopropyl(2-(3,3-difluorocyclobutyl)acetamido)methyl)imidazo[1,2-b]pyridazin-2-yl)-2-((1,1,1-trifluoro-2-methylpropan-2-yl)oxy)ethyl)-1,2,5-oxadiazole-3-carboxamide]	32	
1300	O=C(CCC(F)(F)F)N[C@@H](c1cnn2cc([C@@H](NC(=O)c3ncccc3OCC(F)(F)F)C3CCC(F)(F)CC3)nc2c1)C1CC1 [Example 419, N—((S)-(7-((R)-Cyclopropyl(4,4,4-trifluorobutanamido)methyl)imidazo[1,2-b]pyridazin-2-yl)(4,4-difluorocyclohexyl)methyl)-3-(2,2,2-trifluoroethoxy)picolinamide]	> 20000	
140	Nc1nonc1C(=O)N[C@H](c1cn2ncc([C@H](NC(=O)CCC(F)(F)F)C3CC3)cc2n1)C1CCC(F)(F)CC1 [Example 370, 4-Amino-N—((S)-(7-((R)-cyclopropyl(4,4,4-trifluorobutanamido)methyl)imidazo[1,2-b]pyridazin-2-yl)(4,4-difluorocyclohexyl)methyl)-1,2,5-oxadiazole-3-carboxamide]	470	
2000	CC(F)(F)c1cccc(C(=O)N[C@H](c2cn3ncc([C@H](NC(=O)CCC(F)(F)F)C4CC4)cc3n2)C2CCC(F)(F)CC2)n1 [Example 230, N—((S)-(7-((R)-Cyclopropyl(4,4,4-trifluorobutanamido)methyl)imidazo[1,2-b]pyridazin-2-yl)(4,4-difluorocyclohexyl)methyl)-6-(1,1-difluoroethyl)picolinamide]	> 20000	
62	CCOc1conc1C(=O)N[C@H](c1cn2ncc([C@H](NC(=O)CCC(F)(F)F)C3CC3)cc2n1)C1CCC(F)(F)CC1 [Example 373, N—((S)-(7-((R)-Cyclopropyl(4,4,4-trifluorobutanamido)methyl)imidazo[1,2-b]pyridazin-2-yl)(4,4-difluorocyclohexyl)methyl)-4-ethoxyisoxazole-3-carboxamide]	240	
73	Cc1cnoc1C(=O)N[C@H](c1cn2ncc([C@H](NC(=O)CCC(F)(F)F)C3CC3)cc2n1)C1CCC(F)(F)CC1 [Example 160, N—((S)-(7-((R)-Cyclopropyl(4,4,4-trifluorobutanamido)methyl)imidazo[1,2-b]pyridazin-2-yl)(4,4-difluorocyclohexyl)methyl)-4-methylisoxazole-5-carboxamide]	270	
45	N#CC1([C@@H](NC(=O)CC2CC(F)(F)C2)c2cnn3cc([C@@H](NC(=O)c4nonc4C4CC4)C4CCC(F)(F)CC4)nc3c2)CCC1 [Example 487, N—((S)-(7-((S)-(1-Cyanocyclobutyl)(2-(3,3-difluorocyclobutyl)acetamido)methyl)imidazo[1,2-b]pyridazin-2-yl)(4,4-difluorocyclohexyl)methyl)-4-cyclopropyl-1,2,5-oxadiazole-3-carboxamide]	6	
87	CC(C)n1nccc1C(=O)N[C@H](c1cn2ncc([C@H](NC(=O)C[C@H](O)C(F)(F)F)C3CC3)cc2n1)C1CCC(F)(F)CC1 (relative stereo) [Example 131, N—((S)-(7-((R*)-Cyclopropyl((S*)-4,4,4-trifluoro-3-hydroxybutanamido)methyl)imidazo[1,2-b]pyridazin-2-yl)(4,4-difluorocyclohexyl)methyl)-1-isopropyl-1H-pyrazole-5-carboxamide]	100	
40	CCn1nccc1C(=O)N[C@H](c1cn2ncc([C@H](NC(=O)CCC(F)(F)F)C3CC3)cc2n1)C1CCC(F)(F)CC1 [Example 127, N—((S)-(7-((R)-Cyclopropyl(4,4,4-trifluorobutanamido)methyl)imidazo[1,2-b]pyridazin-2-yl)(4,4-difluorocyclohexyl)methyl)-1-ethyl-1H-pyrazole-5-carboxamide]	100	
1900	O=C(CC1CC(F)(F)C1)NC(c1cnn2cc([C@@H](NC(=O)c3cnnn3CCC(F)(F)F)C3CCC(F)(F)CC3)nc2c1)C1CC1 (single isomer, unassigned) [Example 73, N—((S)-(7-((R*)-Cyclopropyl(2-(3,3-difluorocyclobutyl)acetamido)methyl)imidazo[1,2-b]pyridazin-2-yl)(4,4-difluorocyclohexyl)methyl)-1-(3,3,3-trifluoropropyl)-1H-1,2,3-triazole-5-carboxamide]		~15000
190	O=C(CCC(F)(F)F)N[C@@H](c1cnn2cc([C@@H](NC(=O)c3cccc(OCC(F)(F)F)n3)C3CCC(F)(F)CC3)nc2c1)C1CC1 [Example 203, N—((S)-(7-((R)-Cyclopropyl(4,4,4-trifluorobutanamido)methyl)imidazo[1,2-b]pyridazin-2-yl)(4,4-difluorocyclohexyl)methyl)-6-(2,2,2-trifluoroethoxy)picolinamide]	2700	
230	Cn1nnc(C(=O)N[C@H](c2cn3ncc([C@H](NC(=O)CCC(F)(F)F)C4CC4)cc3n2)C2CCC(F)(F)CC2)c1C(F)F [Example 66, N—((S)-(7-((R)-Cyclopropyl(4,4,4-trifluorobutanamido)methyl)imidazo[1,2-b]pyridazin-2-yl)(4,4-difluorocyclohexyl)methyl)-5-(difluoromethyl)-1-methyl-1H-1,2,3-triazole-4-carboxamide]	3500	

SMILES	IC50 [2] [nM]	IC50 ([1]; Homo sapiens, Keratinocyte) [nM]	IC50 [1] [nM]
CC(C)n1nccc1C(=O)N[C@H](c1cn2ncc([C@H](NC(=O)COC3CC(F)(F)C3)C3CC3)cc2n1)C1CCC(F)(F)CC1 [Example 309, N—((S)-(7-((R)-Cyclopropyl(2-(3,3-difluorocyclobutoxy)acetamido)methyl)imidazo[1,2-b]pyridazin-2-yl)(4,4-difluorocyclohexyl)methyl)-1-isopropyl-1H-pyrazole-5-carboxamide]	100	290	
